Several values for one entry are separate records, joined by “and”; a condition that tells them apart may be missing. Equal entries are not always repeated. Where only a bound is given, the exact number is not on record here.

A word on the viability, T/C: it is the ratio of treated to control. The IC50 is the concentration that inhibits the measured activity by half.

This test deals with 422866-222-R5-J1-PDC complex spheroid viability. Briefly: Anticancer human tumor 422866-222-R5-J1-PDC patient-derived pancreatic adenocarcinoma cell line growth inhibition [POLQ]. The settings on record: for viability, T/C: stronger effect = lower value. Here is the method: Multicellular complex tumor spheroid response to Polymerase (POL) inhibitors (novobiocin, ART-558, RP6685) in combination with a variety of drugs and investigational agents in selected tumor cell lines
The POL inhibitors (novobiocin, ART-558, and RP6685) were evaluated both individually and in combination with standard of care and investigational anticancer small molecules within a complex spheroid model of solid tumors. . Complex spheroids include a stromal component modeled by human endothelial cells (HUVEC) and fibroblasts modeled by human mesenchymal stem cells (MSCs). The concentration ranges selected for each drug and investigational agent were based upon clinically achievable concentrations if the clinical Cmax of the agent was known.
Compounds. The drugs and investigational agents: novobiocin (NSC847541), ART-558 (NSC835418), RP-6685 (NSC848927), peposertib (NSC802822), ceralasertib (NSC780249), elimusertib (NSC800525), camonsertib (NSC841442), AZD-1390 (NSC803789), olaparib (NSC753686), talazoparib (NSC767125), rucaparib (NSC756644), sotorasib (NSC818433), MRTX-1133 (NSC836407), SN-38 (NSC673596), topotecan (NSC609699), epotoside (NSC141540), doxorubicin (NSC123127), gemcitabine (NSC613327), 5-fluorouracil (NSC19893), paclitaxel (NSC125973), vemurafenib (NSC761431), MSA-2 (NSC828583), SN-011 (NSC837082), adavosertib (NSC754352), prexasertib (NSC758257), carboplatin (NSC241240) and oxaliplatin (NSC266046), were obtained from the National Cancer Institute (NCI) Developmental Therapeutics Program Chemical Repository (21). The FDA-approved anticancer drug set is available from the Developmental Therapeutics Program at https://dtp.cancer.gov/organization/dscb/obtaining/. […] The stock solutions were prepared in dimethyl sulfoxide (DMSO, Sigma-Aldrich, St. Louis, MO, cat. D2650), except for the platinum compounds which were prepared in saline (Quality Biological, Gaithersburg, MD, cat. 114-055-101), at 800-fold the tested concentration and stored at -70 degrees C prior to their use. All drugs and investigational agents were tested over a range starting from a high concentration at or near the clinical Cmax and decreasing in half-log increments. If the clinical Cmax for an agent had not been determined, the highest concentration tested was 10 microM, except for SN-38, which was tested at a high concentration of 1 microM.
Cell Culture. All cells were maintained in an incubator at 37 degrees C and 5% CO2 with 95% humidity. The PDC lines were cultured according to standard operating procedures established by the NCI PDMR (https://pdmr.cancer.gov). Table 3 of the manuscript, lists the cell lines along with the number of the three cell types plated to form the mct-spheroids and media for tumor cell growth. After thawing, all PDC lines, except 997537-175-T-J1-PDC and 415267-285-R-J2-PDC, were cultured in Matrigel-coated flasks prepared with a working solution of 1X Ham's F-12 nutrient mix, without supplementation (Thermo Fisher Scientific, cat. 11765054), 100 U/mL penicillin-streptomycin (Thermo Fisher Scientific, cat. 15140122), and 2.5% Matrigel (Corning Inc., Corning, NY, cat. 354248) for the first three passages. The two PDC lines 997537-175-T-J1-PDC and 415267-285-R-J2-PDC were cultured on uncoated flasks. The 857933-349-R-J2-PDC line was cultured in 6C/Colon 1B media containing advanced DMEM/F-12 (Thermo Fisher Scientific, cat. 12634028), 10 mM HEPES (Thermo Fisher Scientific, cat. 15630080), 1X GlutaMAX supplement (Thermo Fisher Scientific, cat. 35050061), 0.1 mg/mL primocin (InvivoGen, San Diego, CA, cat. ant-pm-2), 10% defined fetal bovine serum, heat inactivated (HyClone Laboratories Inc., Logan, UT, cat. SH30070.03HI), 50% L-WRN conditioned media (ATCC, cat. CRL-3276), 1.25 mM N-Acetyl-L-cysteine (Sigma-Aldrich, cat. A9165), 10 mM nicotinamide (Sigma-Aldrich, cat. N0636), 1X B-27 supplement (Thermo Fisher Scientific, cat. 17504044), 1X N-2 supplement (Thermo Fisher Scientific, cat. […]
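Note: spheroids exposed to compounds for one week before readout.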
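Throughout, for viability, T/C: percent of DMSO vehicle wells luminescence so 100% = untreated viability.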

As for `CCc1cc2c(N3CCc4c(cc(Cn5ccnc5)cc4-c4cn(C)nc4C(F)(F)F)C3=O)ccnc2c(OC)n1`, the viability, T/C runs as follows: (compound 0.0316 µM) 93.7% and 75.7% and 82.9%; (compound 0.1 µM) 81% and 78.8% and 84.5%; (compound 0.316 µM) 89.8% and 81.5% and 92.5%; (compound 1 µM) 117% and 113% and 99.8%; (compound 3.16 µM) 129% and 108% and 106%; (compound 10 µM) 108% and 87.1% and 92.4%. Further, where the note is “curve of compound”, the IC50 is more than 10 µM.

For `CC1COCCN1c1cc(C2(O)CC3CCC(C2)O3)c2cnn(-c3ccn[nH]3)c2n1` (stereo unspecified), the viability, T/C is, setting by setting: (compound 0.0316 µM) 81.2% and 74.1% and 69.6%; (compound 0.1 µM) 53.5% and 43.4% and 42.3%; (compound 0.316 µM) 50.6% and 44.2% and 35.5%; (compound 1 µM) 84% and 70.7% and 73.2%; (compound 3.16 µM) 80.6% and 79% and 77.3%; (compound 10 µM) 65.8% and 78.8% and 62.6%. The IC50 (curve of compound) was more than 10 µM.

Turning to `Nc1ccn(C2OC(CO)C(O)C2(F)F)c(=O)n1` (stereo unspecified), the viability, T/C was 62.1% and 51.8% and 64.1% (compound 0.0316 µM); 54.6% and 35.1% and 56.4% (compound 0.1 µM); 41% and 37% and 34.6% (compound 0.316 µM); 41.4% and 31.6% and 43% (compound 1 µM); 38.3% and 35.9% and 36.3% (compound 3.16 µM); 40.9% and 38.9% and 34.1% (compound 10 µM). The IC50 (curve of compound) was 0.12 µM and < 0.0316 µM and 0.146 µM.

In the case of `CCc1c2c(nc3ccc(O)cc13)-c1cc3c(c(=O)n1C2)COC(=O)[C@]3(O)CC`, the viability, T/C reads like this: (compound 0.00316 µM) 44.8% and 37.1% and 42.1%; (compound 0.01 µM) 37.5% and 32.6% and 33.8%; (compound 0.0316 µM) 39.4% and 34.2% and 30.3%; (compound 0.1 µM) 39.1% and 34% and 31.1%; (compound 0.316 µM) 32.7% and 37.2% and 29.6%; (compound 1 µM) 24.8% and 18.2% and 24.5%. In addition, under “curve of compound”, the IC50 is less than 0.00316 µM.

Regarding `CCCS(=O)(=O)Nc1ccc(F)c(C(=O)c2c[nH]c3ncc(-c4ccc(Cl)cc4)cc23)c1F`, the viability, T/C is 102% and 117% and 105% (compound 0.0316 µM); 115% and 138% and 140% (compound 0.1 µM); 130% and 119% and 128% (compound 0.316 µM); 163% (2×) and 148% (compound 1 µM); 194% and 210% and 192% (compound 3.16 µM). For the setting “curve of compound”, the IC50 was more than 10 µM.

As to `Nc1ccc(C#CCN(C(=O)Cc2ncc(C(F)(F)F)cc2C(F)(F)F)c2ccc(F)cc2)nn1`, the viability, T/C (compound 0.0316 µM) was 93.7% [middle of 13 runs]; the viability, T/C (compound 0.1 µM) was 97.3% [middle of 13 runs]; the viability, T/C (compound 1 µM) was 97.2% [middle of 13 runs]; the viability, T/C (compound 3.16 µM) is 105% [middle of 13 runs]; the viability, T/C (compound 10 µM) was 114% [middle of 13 runs]. Moreover, for the setting “compound alone, run of 12/05/2023”, the IC50 is more than 10 µM.

For `COc1ccc([C@@H](O)c2cc(-c3ncnc4cc(N5CCOCC5)ccc34)c(F)cc2Cl)nn1`, the viability, T/C by setting is: (compound 0.0316 µM) 80.3% and 87.1% and 99.6%; (compound 0.1 µM) 84.6% and 77% and 79.5%; (compound 0.316 µM) 76.6% and 85.4% and 75.6%; (compound 1 µM) 62.4% and 59% and 67.8%; (compound 3.16 µM) 43.3% and 51.7% and 45.8%; (compound 10 µM) 35.5% and 35.1% and 37.1%. For the setting “curve of compound”, the IC50 was 2.1 µM and 2.82 µM and 3.02 µM.

Consider `COc1cccc(OCCCN)c1-c1cc(Nc2cnc(C#N)cn2)n[nH]1` + Cc1cccc(N(C)C(=O)C2C(O)CCN2c2nc(C)cc(C(F)(F)F)c2C#N)c1, for which the IC50 reads like this: (curve of first compound, second compound 0.0316 µM) 0.00554 µM; (curve of first compound, second compound 0.1 µM) 0.00674 µM; (curve of first compound, second compound 0.316 µM) 0.00663 µM; (curve of first compound, second compound 1 µM) 0.00692 µM; (curve of first compound, second compound 3.16 µM) 0.00511 µM; (curve of first compound, second compound 10 µM) less than 0.00316 µM. Moreover, the viability, T/C reads like this: (second compound 0.0316 µM, first compound 0.00316 µM) 65.4%; (second compound 0.0316 µM, first compound 0.01 µM) 30.4%; (second compound 0.0316 µM, first compound 0.0316 µM) 30.1%; (second compound 0.0316 µM, first compound 0.1 µM) 26.9%; (second compound 0.0316 µM, first compound 0.316 µM) 36.6%; (second compound 0.0316 µM, first compound 1 µM) 43.4%. Also, the viability, T/C (second compound 0.1 µM, first compound 0.00316 µM) was 72.7%; the viability, T/C (second compound 0.1 µM, first compound 0.01 µM) was 37.7%; the viability, T/C (second compound 0.1 µM, first compound 0.0316 µM) was determined as 31.4%; the viability, T/C (second compound 0.1 µM, first compound 0.1 µM) is 27.3%; the viability, T/C (second compound 0.1 µM, first compound 0.316 µM) worked out at 45.7%; the viability, T/C (second compound 0.1 µM, first compound 1 µM) was 45.6%. The viability, T/C by setting is: (second compound 0.316 µM, first compound 0.00316 µM) 74.4%; (second compound 0.316 µM, first compound 0.01 µM) 32.5%; (second compound 0.316 µM, first compound 0.0316 µM) 35%; (second compound 0.316 µM, first compound 0.1 µM) 30.1%; (second compound 0.316 µM, first compound 0.316 µM) 51.8%; (second compound 0.316 µM, first compound 1 µM) 32.2%. The viability, T/C (second compound 1 µM, first compound 0.00316 µM) amounted to 77.7%; the viability, T/C (second compound 1 µM, first compound 0.01 µM) came out at 37.8%; the viability, T/C (second compound 1 µM, first compound 0.0316 µM) worked out at 28.8%; the viability, T/C (second compound 1 µM, first compound 0.1 µM) was found to be 32.5%; the viability, T/C (second compound 1 µM, first compound 0.316 µM) amounted to 25.9%; the viability, T/C (second compound 1 µM, first compound 1 µM) came out at 43.8%. The viability, T/C reads like this: (second compound 3.16 µM, first compound 0.00316 µM) 58.3%; (second compound 3.16 µM, first compound 0.01 µM) 39.3%; (second compound 3.16 µM, first compound 0.0316 µM) 30.4%; (second compound 3.16 µM, first compound 0.1 µM) 35.7%; (second compound 3.16 µM, first compound 0.316 µM) 29.8%; (second compound 3.16 µM, first compound 1 µM) 50.1%. For the same compound, the viability, T/C was 68.1% (second compound 10 µM, first compound 0.00316 µM); 30.3% (second compound 10 µM, first compound 0.01 µM); 36.4% (second compound 10 µM, first compound 0.0316 µM); 30.5% (second compound 10 µM, first compound 0.1 µM); 35.9% (second compound 10 µM, first compound 0.316 µM); 54.9% (second compound 10 µM, first compound 1 µM).

`O=c1[nH]cc(F)c(=O)[nH]1`: the viability, T/C is, setting by setting: (compound 0.0316 µM) 95.8% and 101% and 92%; (compound 0.1 µM) 103% and 93.5% and 99.9%; (compound 0.316 µM) 107% and 97.4% and 98.9%; (compound 1 µM) 85% and 101% and 80.7%; (compound 3.16 µM) 73.7% and 83.7% and 89.8%; (compound 10 µM) 74.5% and 73.4% and 72.8%. Where the note is “curve of compound”, the IC50 is more than 10 µM.

Values taken from PubChem BioAssay AID1963844 (Molecular Pharmacology Branch, DTP, NCI, 2024).
